Assay results published in patent US10583130B2, “Pharmaceutical formulations compromising nitrocatechol derivatives and methods of making thereof” (BIAL—Portela & Cᵃ, S.A., priority 2009, dated 2020).

Key:
[1] = Bulk / apparent density (m/V0); type: physicochemical; conditions: prior to granulation and/or formulation
Description: It is within the ability of one of skill in the art to determine the bulk density of a compound or composition using methods generally accepted in the art. However, suitable methods include, for example, the European Pharmacopeia edition 6, Test 2.9.15 “apparent volume,” pages 285-286, EDQM, 2007, and USP 31, vol. 1 test <616> page 231-232, The United States Pharmacopeia Convention, 2008. An example of a suitable method is described below:
Apparatus: • settling apparatus capable of producing in 1 minute 250±15 taps from a height of 3±0.2 mm. The support for the graduated cylinder with its holder, has a mass of 450±5 g • a 250 ml graduated cylinder (2 ml intervals) with a mass of 220±40 g
Method: Into a dry cylinder, introduce without compacting, 100.0 g (m g) of the test substance. Secure the cylinder in its holder. Read the unsettled apparent volume (V0) to the nearest milliliter. Carry out 10, 500 and 1250 taps and read the corresponding volumes V10, V500, V1250, to the nearest milliliter. If the difference between V500 and V1250 is greater than 2 ml, carry out another 1250 taps.
Alternatively, if it is not possible to select 100.0 g, select a test sample of any mass but with a volume between 50 ml and 250 ml, measure its apparent volume, V0 as described above, and weigh the sample and specify the mass in the expression of results. Bulk/apparent density may then be determined in g/ml using the following formula: m/V0 where m is the mass in grams and V0 the unsettled apparent volume.
(§1) The granules and final compositions were evaluated for bulk and tapped density using the methods described above. Flowability was also accessed by testing the flow rate through an orifice described in USP 31, vol. 1, test <1174>, The United States Pharmacopeia Convention, 2008. The flowability was measured as the mass per time flowing through the 10 mm diameter opening of a glass funnel.

[2] = Flowability: flow rate through 10 mm orifice of a glass funnel (USP <1174>); type: physicochemical; conditions: API before granulation
Description: It is within the ability of one of skill in the art to determine the flowability of a compound or composition using methods generally accepted in the art. However, suitable methods include but are not limited to, testing the flow rate through an orifice described in USP 31, vol. 1, test <1174>, The United States Pharmacopeia Convention, 2008, in which case, the flowability may be measured as the mass per time flowing through the 10 mm diameter opening of a glass funnel.
as §1

| bulk density of the API alone [1] | bulk density of the API alone ([1]; listed as 2,5-dichloro-3-(5-(3,4-dihydroxy-5-nitrophenyl)-1,2,4-oxadiazol-3-yl)-4,6-dimeth) | flow of the API alone [2] | SMILES |
| --- | --- | --- | --- |
| < 0.1 g/mL | less than 0.1 g/ml | no flow | Cc1c(Cl)c(C)[n+]([O-])c(Cl)c1-c1noc(-c2cc(O)c(O)c([N+](=O)[O-])c2)n1 [API, 2,5-dichloro-3-(5-(3,4-dihydroxy-5-nitrophenyl)-1,2,4-oxadiazol-3-yl)-4,6-dimethylpyridine 1-oxide] |
| around 0.2 g/ml | – | – | Cc1nc(Cl)c(-c2noc(-c3cc(O)c(O)c([N+](=O)[O-])c3)n2)c(C)c1Cl [5-[3-(2,5-dichloro-4,6-dimethylpyridin-3-yl)-[1,2,4]oxadiazol-5-yl]-3-nitrobenzene-1,2-diol] |
